Measured values: paper PMC9922277, “Repositioning Lomitapide to block ZDHHC5-dependant palmitoylation on SSTR5 leads to anti-proliferation effect in preclinical pancreatic cancer models” (Cell Death Discovery, 2023)
Values belong to the molecule of their own block, whether it stands above or below them. Ends that are not written are not given here.

How the values were obtained:
ZDHHC5 = target: T1, ZDHHC5 (Homo sapiens, UniProt Q9C0B5); test: microscale thermophoresis (MST) with labeled ZDHHC5 fragment; type: binding
T1 construct: protein fragment 60-148aa expressed using Yeast
T1 sequence (Q9C0B5 60-148): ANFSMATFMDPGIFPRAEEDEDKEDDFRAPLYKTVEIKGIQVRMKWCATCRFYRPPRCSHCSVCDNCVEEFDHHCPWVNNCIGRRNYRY

[1] = target: T2, ZDHHC5 protein fragment (60-148aa), ZDHHC5's substrate binding domain (UniProt Q9C0B5 60-148, RED-NHS 2nd Generation dye label where it was the labeled partner (assay without Lomitapide); unlabeled in the assay with Lomitapide); test: MST; in the presence of 25 uM Lomitapide: 20 nM labeled SSTR5 and 25 uM Lomitapide mixed with unlabeled ZDHHC5 in 16 serial concentrations (maximum 200 nM), RT, 1.05*PBS; settings: both partners purified
T2 construct: also called ZDHHC5 substrate domain; source: expressed using Yeast; labeled and purified with the labeling kit
T2 sequence (Q9C0B5 60-148): as above

[2] = target: T2, ZDHHC5 protein fragment (60-148aa), …; test: MST; 20 nM labeled ZDHHC5 mixed with unlabeled SSTR5 in 16 serial concentrations (maximum 200 nM), RT, 1.05*PBS; Monolith NT.115, LED 20%, medium MST power; settings: both partners purified

Kd (ZDHHC5): 509 nM
Molecule: O=C(NC1CCN(CCCCC2(C(=O)NCC(F)(F)F)c3ccccc3-c3ccccc32)CC1)c1ccccc1-c1ccc(C(F)(F)F)cc1 [Lomitapide]

Kd (ZDHHC5): 88 nM
Molecule: CCCCCCCCCCCCCCCC(=O)O [palmitic acid]

Kd [1]: 22.5 nM
Kd [2]: 2.06 nM
B1: SSTR5 protein fragment (cytoplasmic tail 307-364aa) (domain or fragment, UniProt P35346 307-364, looked up)
chain: LSDNFRQSFQKVLCLRKGSGAKDADATEPRPDRIRQQQEATPPAHRAAANGLMQTSKL
modifications: also: RED-NHS dye label in the labeled-partner assay, site not given here
notes: also called SSTR5 (307-362 aa); SSTR5 cytoplasmic tail
